The source of these data is patent publication US12023333B2, “Phenyl-sulfamoyl.benzoyc acids as ERAP1 modulators” (GREY WOLF THERAPEUTICS LIMITED, priority 2019, dated 2024).

This assay deals with T1, Purified ERAP1(37-941)-10His (ERAP1) (Homo sapiens, UniProt Q9NZ08).
T1 construct: Purified ERAP1(37-941)-10His (ERAP1); 10His (C)
The experiment in a line: ERAP1 mediated hydrolysis of an amide substrate measured in a biochemical system (10-mer decapeptide substrate). Conditions: 10-mer substrate, 23° C. for 1 h, excitation 279 nm and emission 355 nm; read-out: IC50 vs Decapeptide WRVYEKC(Dnp)ALK-acid (where Dnp is Dinitrophenyl maleimide) (10-mer). The procedure: Biological Assay 1: ERAP1 Mediated Hydrolysis of an Amide Substrate Measured in a Biochemical System
1× Assay buffer (AB): 25 mM Bis-tris propane, 0.05% w/v Hydroxypropylmethylcellulose pH 7.75 made with Optima grade water
Decapeptide WRVYEKC(Dnp)ALK-acid (where Dnp is Dinitrophenyl maleimide) (10-mer) L-Leucine 7-amido-4-methylcoumarin (L-AMC)
12.5 μL ERAP1 enzyme in 1×AB was combined with 250 nL test compound in DMSO. 12.5 μL of either 240 μM L-AMC in 1×AB or 100 μM 10-mer in 1×AB was added to the reaction and incubated at 23° C. for 1 h. For detection, plates were read at excitation 365 nm and emission 442 nm (L-AMC) or excitation 279 nm and emission 355 nm (10-mer). Compound IC50 was determined using a 4 parameter equation.

pIC50: −log10 of the molar value.

T1 sequence (Q9NZ08 37-941): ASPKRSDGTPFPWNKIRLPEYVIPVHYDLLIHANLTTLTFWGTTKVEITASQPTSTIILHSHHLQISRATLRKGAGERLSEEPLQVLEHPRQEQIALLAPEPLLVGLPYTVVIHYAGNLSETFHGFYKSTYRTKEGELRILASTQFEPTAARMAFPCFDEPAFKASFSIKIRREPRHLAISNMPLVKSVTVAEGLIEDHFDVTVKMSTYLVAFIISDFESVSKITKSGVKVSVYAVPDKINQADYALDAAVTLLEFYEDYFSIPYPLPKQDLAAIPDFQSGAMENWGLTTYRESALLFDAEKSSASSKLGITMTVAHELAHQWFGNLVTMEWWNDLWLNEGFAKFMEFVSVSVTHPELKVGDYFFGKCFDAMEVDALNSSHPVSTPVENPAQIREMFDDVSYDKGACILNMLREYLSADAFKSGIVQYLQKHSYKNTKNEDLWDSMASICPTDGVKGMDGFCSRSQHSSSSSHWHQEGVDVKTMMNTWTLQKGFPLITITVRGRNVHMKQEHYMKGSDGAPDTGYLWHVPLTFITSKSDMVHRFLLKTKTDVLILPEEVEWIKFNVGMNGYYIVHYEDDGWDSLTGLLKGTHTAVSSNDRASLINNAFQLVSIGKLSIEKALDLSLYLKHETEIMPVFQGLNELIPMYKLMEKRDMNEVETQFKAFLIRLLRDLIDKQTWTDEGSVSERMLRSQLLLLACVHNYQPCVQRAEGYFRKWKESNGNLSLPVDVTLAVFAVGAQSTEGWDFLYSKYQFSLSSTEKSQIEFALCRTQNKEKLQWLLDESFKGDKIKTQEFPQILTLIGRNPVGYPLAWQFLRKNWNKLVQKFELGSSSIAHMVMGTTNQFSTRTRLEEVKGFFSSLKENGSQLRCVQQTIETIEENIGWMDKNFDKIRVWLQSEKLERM

For `COc1ccc(C(=O)O)cc1S(=O)(=O)Nc1cc(C(F)(F)F)ccc1-c1ccccc1` [Example 1, 4-methoxy-3-(N-(4-(trifluoromethyl)-[1,1′-biphenyl]-2-yl)sulfamoyl)benzoic acid], the negative-log IC50 (pIC50) was greater than 6.30.

As for `COc1ccc(C(=O)O)cc1S(=O)(=O)Nc1cc(C(F)(F)F)ccc1-c1cccnc1` [Example 2, 4-methoxy-3-(N-(2-(pyridin-3-yl)-5-(trifluoromethyl)phenyl)sulfamoyl)benzoic acid], the negative-log IC50 (pIC50) was greater than 6.30.

Turning to `COc1ccc(C(=O)O)cc1S(=O)(=O)Nc1cc(C(F)(F)F)ccc1-c1cccs1` [Example 3, 4-methoxy-3-(N-(2-(thiophen-2-yl)-5-(trifluoromethyl)phenyl)sulfamoyl)benzoic acid], the pIC50 was greater than 6.30.

`COc1ccc(C(=O)O)cc1S(=O)(=O)Nc1cc(C(F)(F)F)ccc1-c1cc(C)nn1C` [Example 4, 3-(N-(2-(1,3-dimethylpyrazol-5-yl)-5-(trifluoromethyl)phenyl)sulfamoyl)-4-methoxybenzoic acid]: the pIC50 was greater than 5.30.

Regarding `COc1ccc(C(=O)O)cc1S(=O)(=O)Nc1cc(C(F)(F)F)ccc1-c1ccnn1CC(C)C` [Example 5, 3-(N-(2-(1-isobutylpyrazol-5-yl)-5-(trifluoromethyl)phenyl)sulfamoyl)-4-methoxybenzoic acid], the pIC50 was greater than 5.30.

`COc1ccc(C(=O)O)cc1S(=O)(=O)Nc1cc(C(F)(F)F)ccc1-c1cccc(C)c1` [Example 6, 4-methoxy-3-(N-(3′-methyl-4-(trifluoromethyl)-[1,1′-biphenyl]-2-yl)sulfamoyl)benzoic acid]: the negative logarithm of the IC50 (pIC50) was greater than 6.30.

Take `COc1ccc(C(=O)O)cc1S(=O)(=O)Nc1cc(C(F)(F)F)ccc1-c1cccc(C#N)c1` [Example 7, 3-(N-(3′-cyano-4-(trifluoromethyl)-[1,1′-biphenyl]-2-yl)sulfamoyl)-4-methoxybenzoic acid]: the negative logarithm of the IC50 (pIC50) is greater than 6.30.

In the case of `COc1ccc(C(=O)O)cc1S(=O)(=O)Nc1cc(C(F)(F)F)ccc1-c1ccccc1C` [Example 8, 4-methoxy-3-(N-(2′-methyl-4-(trifluoromethyl)-[1,1′-biphenyl]-2-yl)sulfamoyl)benzoic acid], the negative-log IC50 (pIC50) is greater than 6.30.

Take `COc1ccc(C(=O)O)cc1S(=O)(=O)Nc1cc(C(F)(F)F)ccc1-c1ccccc1F` [Example 9, 3-(N-(2′-fluoro-4-(trifluoromethyl)-[1,1′-biphenyl]-2-yl)sulfamoyl)-4-methoxybenzoic acid]: the pIC50 is greater than 6.30.

In the case of `COc1ccc(C(=O)O)cc1S(=O)(=O)Nc1cc(C(F)(F)F)ccc1-c1ccccc1Cl` [Example 10, 3-(N-(2′-chloro-4-(trifluoromethyl)-[1,1′-biphenyl]-2-yl)sulfamoyl)-4-methoxybenzoic acid], the pIC50 is greater than 5.30.

As for `COc1ccccc1-c1ccc(C(F)(F)F)cc1NS(=O)(=O)c1cc(C(=O)O)ccc1OC` [Example 11, 4-methoxy-3-(N-(2′-methoxy-4-(trifluoromethyl)-[1,1′-biphenyl]-2-yl)sulfamoyl)benzoic acid], the pIC50 was greater than 5.30.

Consider `COc1ccc(C(=O)O)cc1S(=O)(=O)Nc1cc(C(F)(F)F)ccc1-c1ccc(F)cc1` [Example 12, 3-(N-(4′-fluoro-4-(trifluoromethyl)-[1,1′-biphenyl]-2-yl)sulfamoyl)-4-methoxybenzoic acid], for which the pIC50 is greater than 6.30.

In the case of `COc1ccc(C(=O)O)cc1S(=O)(=O)Nc1cc(C(F)(F)F)ccc1-c1ccccc1C#N` [Example 13, 3-(N-(2′-cyano-4-(trifluoromethyl)-[1,1′-biphenyl]-2-yl)sulfamoyl)-4-methoxybenzoic acid], the pIC50 was greater than 5.30.

Consider `COc1ccc(C(=O)O)cc1S(=O)(=O)Nc1cc(C(F)(F)F)ccc1-c1ccncc1` [Example 14, 4-methoxy-3-(N-(2-(pyridin-4-yl)-5-(trifluoromethyl)phenyl)sulfamoyl)benzoic acid], for which the pIC50 was less than 5.30.

For `COc1ccc(C(=O)O)cc1S(=O)(=O)Nc1cc(C(F)(F)F)ccc1-c1cccc(F)c1` [Example 15, 3-(N-(3′-fluoro-4-(trifluoromethyl)-[1,1′-biphenyl]-2-yl)sulfamoyl)-4-methoxybenzoic acid], the pIC50 was greater than 6.30.

For the molecule `COc1ccc(C(=O)O)cc1S(=O)(=O)Nc1cc(C(F)(F)F)ccc1-c1ccc(C#N)cc1` [Example 16, 3-(N-(4′-cyano-4-(trifluoromethyl)-[1,1′-biphenyl]-2-yl)sulfamoyl)-4-methoxybenzoic acid], the negative logarithm of the IC50 (pIC50) is greater than 5.30.

With `COc1cccc(-c2ccc(C(F)(F)F)cc2NS(=O)(=O)c2cc(C(=O)O)ccc2OC)c1` [Example 17, 4-methoxy-3-(N-(3′-methoxy-4-(trifluoromethyl)-[1,1′-biphenyl]-2-yl)sulfamoyl)benzoic acid], the pIC50 is greater than 5.30.

For `COc1ccc(C(=O)O)cc1S(=O)(=O)Nc1cc(C(F)(F)F)ccc1-c1ccoc1` [Example 18, 3-(N-(2-(furan-3-yl)-5-(trifluoromethyl)phenyl)sulfamoyl)-4-methoxybenzoic acid], the negative logarithm of the IC50 (pIC50) was greater than 6.30.

With `CCc1ccc(C(=O)O)cc1S(=O)(=O)Nc1cc(C(F)(F)F)ccc1-c1ccccc1` [Example 19, 4-ethyl-3-(N-(4-(trifluoromethyl)-[1,1′-biphenyl]-2-yl)sulfamoyl) benzoic acid], the pIC50 is greater than 6.30.

On to `COc1ccc(C(=O)O)cc1S(=O)(=O)Nc1cc(C(F)(F)F)ccc1-c1ccsc1` [Example 20, 4-methoxy-3-(N-(2-(thiophen-3-yl)-5-(trifluoromethyl)phenyl)sulfamoyl) benzoic acid], for which the pIC50 was greater than 6.30.

In the case of `CCc1ccc(C(=O)O)cc1S(=O)(=O)Nc1cc(C(F)(F)F)ccc1-c1cccc(C#N)c1` [Example 21, 3-(N-(3′-cyano-4-(trifluoromethyl)-[1,1′-biphenyl]-2-yl)sulfamoyl)-4-ethylbenzoic acid], the negative logarithm of the IC50 (pIC50) is greater than 6.30.

Regarding `CCc1ccc(C(=O)O)cc1S(=O)(=O)Nc1cc(C(F)(F)F)ccc1-c1cccs1` [Example 22, 4-ethyl-3-(N-(2-(thiophen-2-yl)-5-(trifluoromethyl)phenyl)sulfamoyl)benzoic acid], the pIC50 was greater than 6.30.

As to `COc1ccc(C(=O)O)cc1S(=O)(=O)Nc1cc(C(F)(F)F)ccc1-c1ccco1` [Example 23, 3-(N-(2-(furan-2-yl)-5-(trifluoromethyl)phenyl)sulfamoyl)-4-methoxybenzoic acid], the negative-log IC50 (pIC50) was greater than 6.30.

Consider `CCc1ccc(C(=O)O)cc1S(=O)(=O)Nc1cc(C(F)(F)F)ccc1-c1cccc(F)c1` [Example 24, 4-ethyl-3-(N-(3′-fluoro-4-(trifluoromethyl)-[1,1′-biphenyl]-2-yl)sulfamoyl) benzoic acid], for which the pIC50 is greater than 6.30.

Turning to `COc1ccc(C(=O)O)cc1S(=O)(=O)Nc1cc(C(F)(F)F)ccc1-c1cnco1` [Example 25, 4-methoxy-3-(N-(2-(oxazol-5-yl)-5-(trifluoromethyl)phenyl)sulfamoyl) benzoic acid], the negative-log IC50 (pIC50) was greater than 5.30.

As to `COc1ccc(C(=O)O)cc1S(=O)(=O)Nc1cc(C(F)(F)F)ccc1-c1ccccn1` [Example 26, 4-methoxy-3-(N-(2-(pyridin-2-yl)-5-(trifluoromethyl)phenyl)sulfamoyl) benzoic acid], the negative-log IC50 (pIC50) was greater than 6.30.

For the molecule `CCc1ccc(C(=O)O)cc1S(=O)(=O)Nc1cc(C(F)(F)F)ccc1-c1cccnc1` [Example 27, 4-ethyl-3-(N-(2-(pyridin-3-yl)-5-(trifluoromethyl)phenyl)sulfamoyl)benzoic acid], the negative logarithm of the IC50 (pIC50) is greater than 6.30.

In the case of `COc1ccc(C(=O)O)cc1S(=O)(=O)Nc1cc(C(F)(F)F)ccc1-n1cncn1` [Example 28, 3-(N-(2-(1,2,4-triazol-1-yl)-5-(trifluoromethyl)phenyl)sulfamoyl)-4-methoxybenzoic acid], the pIC50 was less than 5.30.

As to `CCc1ccc(C(=O)O)cc1S(=O)(=O)Nc1cc(C(F)(F)F)ccc1-n1cncn1` [Example 29, 3-(N-(2-(1,2,4-triazol-1-yl)-5-(trifluoromethyl)phenyl)sulfamoyl)-4-ethylbenzoic acid], the pIC50 was greater than 5.30.

As for `COc1ccc(C(=O)O)cc1S(=O)(=O)Nc1cc(C(F)(F)F)ccc1-n1cccn1` [Example 30, 3-(N-(2-(pyrazol-1-yl)-5-(trifluoromethyl)phenyl)sulfamoyl)-4-methoxybenzoic acid], the pIC50 is greater than 5.30.

On to `CCc1ccc(C(=O)O)cc1S(=O)(=O)Nc1cc(C(F)(F)F)ccc1-n1cccn1` [Example 31, 3-(N-(2-(pyrazol-1-yl)-5-(trifluoromethyl)phenyl)sulfamoyl)-4-ethylbenzoic acid], for which the negative-log IC50 (pIC50) is greater than 6.30.

With `CCc1ccc(C(=O)O)cc1S(=O)(=O)Nc1cc(S(C)(=O)=O)ccc1-c1ccccc1` [Example 32, 4-ethyl-3-(N-(4-(methylsulfonyl)-[1,1′-biphenyl]-2-yl)sulfamoyl)benzoic acid], the pIC50 was greater than 6.30.

With `CCc1ccc(C(=O)O)cc1S(=O)(=O)Nc1cc(S(C)(=O)=O)ccc1-c1cccc(F)c1` [Example 33, 4-ethyl-3-(N-(3′-fluoro-4-(methylsulfonyl)-[1,1-biphenyl]-2-yl)sulfamoyl)benzoic acid], the pIC50 is greater than 6.30.

For the molecule `CCc1ccc(C(=O)O)cc1S(=O)(=O)Nc1cc(S(C)(=O)=O)ccc1-c1cccs1` [Example 34, 4-ethyl-3-(N-(5-(methylsulfonyl)-2-(thiophen-2-yl)phenyl)sulfamoyl) benzoic acid], the pIC50 was greater than 6.30.
